The record followed here is US20260263431A1, “ARYL HYDROCARBON RECEPTOR AGONIST PRODRUGS AND METHODS OF USE THEREOF” (Allianthera (Suzhou) Biopharmaceutical Co., Ltd., priority 2022, published 2026).

As usually defined, the Papp A→B is the apparent permeability from the apical to the basolateral side of a cell layer. A lower Papp A→B goes with slow passage.

Data set [1] can be described thus: Caco-2 permeability assay (AB). The data set is classed as in vitro ADME. Particulars: human, apical to basolateral. The method, then:
(§1) Compounds were tested under typical Caco-2 and S9 assay conditions.
On the technique in general: Caco-2 monolayers are a common model of the intestinal barrier.

The nature of data set [2]: S9 stability assay. The data set is classed as in vitro ADME. Particulars: read-out: mouse S9 Clint. The method, then: as §1
Data set [3] in a line: In vitro anaerobic metabolism in mouse fecal homogenate. In kind it is in vitro ADME. Particulars: 20 μM, anaerobic 37° C. The method, then: (§2) The ability of the compounds of Formula (I) to release the active compound in the small or large intestine is assessed by introducing representative compounds of the disclosure to the contents of either a rodent small intestine or a rodent large intestine for up to 24 hours at 37° C. The amount of active drug released after the incubation period is determined by LC-MS/MS. Additional studies are conducted by incubating representative compounds of the disclosure with human fecal samples.
(§3) In Vitro Anaerobic Metabolism in Fecal Homogenates (vs. Control)
(§4) Compound 1 was dissolved in PBS (pH 7.4) to provide a 200 μM working solution. An aliquot of 50 μL volume was spiked to each 450 μL fecal homogenate incubation sample to provide an incubation concentration at 20 μM.
(§5) An estimated 1 g to 2 g wet weight of fecal material from healthy mice and rats (separately) was immediately collected in a pre-labelled 50 mL EP tube and stored at ambient room temperature. Based on the weight of each fecal material, a dilution with 0.01 M isotonic phosphate buffer (pH 7.0) is performed to provide a 12.5× diluted fecal homogenate. All fecal materials were stored at room temperature before being used in fecal homogenate preparation.
(§6) Under anaerobic conditions, each of the fecal specimen materials collected in 0.01 M isotonic phosphate buffer (pH 7.0) was homogenized by shaking and mixing with a stirrer. Each lot of the fecal homogenate material was added with an appropriate volume of 0.01 M isotonic phosphate buffer (pH 7.0) to provide fecal homogenate at 12.5× dilution. Under anaerobic condition in a nitrogen glove box purged with high purity nitrogen to ensure <1% oxygen level, the fecal homogenate was transferred to a clean container and diluted with 3 volumes of Brain Heart Infusion Broth (BHI) to provide a 50× diluted fecal homogenate. The diluted fecal homogenate matrix at an aliquot of 0.45 mL was dispensed into 2-mL EP tube, freshly prepared Compound 1 working solutions were then spiked to the fecal homogenate sample vials for incubation over the metabolic stability time-course.
(§7) Compound 1 was incubated at a target concentration of 20 μM in each fecal homogenate over a time course of 0, 1, 2, 4, 6 and 24 hours. Metabolic incubation at each time point was performed in triplicate. Incubation of the samples was performed in 2-mL EP tube. Into each pre-labeled sample vial, 50 μL of a Compound 1 working solution was accurately dispensed followed by the addition of the 0.45 mL pre-incubated fecal homogenate. Sample were capped, vortex mixed and incubated under an anaerobic environment at 37° C. At the end of each incubation time point, 1.0 mL of IS (Internal Standard) as a stop solvent was added to each sample with vortex mixed to stop the metabolic reactions. Samples at the 0-hour time point were pre-treated with the addition of IS stop solvent prior to the spiking of fecal homogenate and Compound 1. All samples were stored at −80° C. prior to LC-MS/MS assay. Samples are analyzed by LC-MS/MS. The MS detection is performed using a Sciex API 5500+ instrument. Each compound is analyzed by reverse phase HPLC.

The nature of data set [4]: In vitro anaerobic metabolism in rat fecal homogenate. The data set is classed as in vitro ADME. As to conditions: 20 μM, anaerobic 37° C. The method, then: as §2, §3, §4, §5, §6, §7
The nature of data set [5]: Stability in BHI broth (vehicle stability control). In kind it is in vitro ADME. Particulars: 20 μM.
The target in data set [6] is T1, AHR (Homo sapiens, UniProt P35869).
T1 sequence (P35869 11-848): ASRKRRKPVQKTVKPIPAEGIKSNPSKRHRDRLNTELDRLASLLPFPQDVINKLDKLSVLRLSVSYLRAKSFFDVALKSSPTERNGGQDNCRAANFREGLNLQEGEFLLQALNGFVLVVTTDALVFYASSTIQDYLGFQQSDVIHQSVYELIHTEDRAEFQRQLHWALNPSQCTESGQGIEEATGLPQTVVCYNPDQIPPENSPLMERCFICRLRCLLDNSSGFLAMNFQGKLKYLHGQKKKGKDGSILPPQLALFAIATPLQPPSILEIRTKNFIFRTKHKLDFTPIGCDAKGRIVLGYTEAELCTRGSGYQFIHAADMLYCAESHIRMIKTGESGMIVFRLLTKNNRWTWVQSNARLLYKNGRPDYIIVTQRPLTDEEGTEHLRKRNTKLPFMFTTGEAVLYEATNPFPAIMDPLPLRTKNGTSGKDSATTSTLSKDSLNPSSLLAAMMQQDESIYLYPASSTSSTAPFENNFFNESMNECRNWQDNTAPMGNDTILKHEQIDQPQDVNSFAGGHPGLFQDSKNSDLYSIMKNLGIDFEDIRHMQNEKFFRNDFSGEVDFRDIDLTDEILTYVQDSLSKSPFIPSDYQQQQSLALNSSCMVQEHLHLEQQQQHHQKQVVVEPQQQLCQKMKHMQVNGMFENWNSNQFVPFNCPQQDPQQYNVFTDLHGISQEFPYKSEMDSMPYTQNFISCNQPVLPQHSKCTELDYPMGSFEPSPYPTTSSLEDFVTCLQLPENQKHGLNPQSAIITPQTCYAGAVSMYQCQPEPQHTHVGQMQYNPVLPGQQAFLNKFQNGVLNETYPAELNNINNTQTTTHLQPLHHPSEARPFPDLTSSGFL
As to the kind of experiment: AHR activity of the metabolite (reEC50 / abEC50). In kind it is cell-based. Particulars: relative to tapinarof at 1 μM. The method, then: The AHR activity of the metabolite is measured as AHR reEC50 (as % activation to tapinarof at 1 μM)—of 166.1 nM (69.5%) and a AHR abEC50 of 241.5 nM.

Some results are limits rather than exact numbers.

In the case of `CC(C)c1ncc(/C=C/c2ccccc2)cc1OS(=O)(=O)O` [Compound 1, {2-isopropyl-5-[(E)-2-phenylethenyl]pyridin-3-yl}oxidanesulfonic acid], the Papp A→B in data set [1] was 0.44 ×10⁻⁶ cm/s. Further, in data set [2], the intrinsic clearance in mouse S9 came out at 4.91 µL/min/mg. The “Compound 1 Conc. Average” value in data set [3] (0 hr) was determined as 23.7 µM; in data set [3] (1 hr) it was 21.8 µM; in data set [3] (2 hr), 21.6 µM; in data set [3] (4 hr), 19.2 µM; in data set [3] (6 hr) it was 14.75 µM; in data set [3] (24 hr), 0.0738 µM. Further, the “Compound 1 Conc. Average” value turned out to be 25.05 µM in data set [4] (0 hr); 21.3 µM in data set [4] (1 hr); 20.55 µM in data set [4] (2 hr); 14.2 µM in data set [4] (4 hr); 3.02 µM in data set [4] (6 hr); 0.0657 µM in data set [4] (24 hr). For the same compound, the “Compound 1 Conc. Average” value in data set [5] (0 hr) came to 23.2 µM; in data set [5] (24 hr), 21.9 µM.

As to `CC(C)c1c(O)cc(-c2cc3ccccc3cn2)cc1OS(=O)(=O)O` [Compound 2, [3-hydroxy-2-isopropyl-5-(isoquinolin-3-yl)phenyl]oxidanesulfonic acid], the intrinsic clearance in mouse S9 in data set [2] is 1.18 µL/min/mg.

Turning to `CC(C)c1c(O)cc(-c2cnc3ccccc3c2)cc1OS(=O)(=O)O` [Compound 3, [3-hydroxy-2-isopropyl-5-(quinolin-3-yl)phenyl]oxidanesulfonic acid], the apical-to-basolateral permeability (Papp A→B) in data set [1] worked out at 0.29 ×10⁻⁶ cm/s.

For `CC(C)c1c(OP(=O)(O)O)cc(-c2cnc3ccccc3c2)cc1OP(=O)(O)O` [Compound 4, 2-isopropyl-3-(phosphonooxy)-5-(quinolin-3-yl)phenoxyphosphonic acid], in data set [1], the Papp A→B was < 0.2 ×10⁻⁶ cm/s. Moreover, the intrinsic clearance in mouse S9 in data set [2] is 3.43 µL/min/mg.

With `CC(C)c1ncc(/C=C/c2ccccc2F)cc1OS(=O)(=O)O` [Compound 5, {5-[(E)-2-(2-fluorophenyl)ethenyl]-2-isopropylpyridin-3-yl}oxidanesulfonic acid], the Papp A→B in data set [1] came out at 0.44 ×10⁻⁶ cm/s. The intrinsic clearance in mouse S9 in data set [2] amounted to 2.64 µL/min/mg.

`CC(C)c1ncc(/C=C/c2ccc(F)cc2)cc1OS(=O)(=O)O` [Compound 6, {5-[(E)-2-(4-fluorophenyl)ethenyl]-2-isopropylpyridin-3-yl}oxidanesulfonic acid]: the Papp A→B in data set [1] worked out at 0.62 ×10⁻⁶ cm/s. In data set [2], the intrinsic clearance in mouse S9 stood at 1.26 µL/min/mg.

Consider `CC(C)c1c(O)cc(-c2cc(F)c3cnc(N)nc3c2)cc1OS(=O)(=O)O` [Compound 7, [5-(2-amino-5-fluoroquinazolin-7-yl)-3-hydroxy-2-isopropylphenyl]oxidanesulfonic acid], for which the Papp A→B in data set [1] came to 0.37 ×10⁻⁶ cm/s.

For `CC(C)c1c(O)cc(-c2ccc3cc(F)ccc3n2)cc1OS(=O)(=O)O` [Compound 8, [5-(6-fluoroquinolin-2-yl)-3-hydroxy-2-isopropylphenyl]oxidanesulfonic acid], in data set [2], the intrinsic clearance in mouse S9 was determined as 0.02 µL/min/mg.

`CCCc1c(F)cc(/C=C/c2ccccc2)cc1OS(=O)(=O)O` [Compound 9, {3-fluoro-5-[(E)-2-phenylethenyl]-2-propylphenyl}oxidanesulfonic acid] registered a Papp A→B in data set [1] of 0.29 ×10⁻⁶ cm/s. In addition, the intrinsic clearance in mouse S9 in data set [2] was found to be 0.7 µL/min/mg.

`CC(C)c1c(F)cc(/C=C/c2ccccc2)cc1OS(=O)(=O)O` [Compound 10, {3-fluoro-2-isopropyl-5-[(E)-2-phenylethenyl]phenyl}oxidanesulfonic acid] showed a Papp A→B in data set [1] of 0.25 ×10⁻⁶ cm/s. Further, the intrinsic clearance in mouse S9 in data set [2] was 0.47 µL/min/mg.

Take `Cc1ccnc2cc(-c3cc(F)c(C(C)C)c(OP(=O)(O)O)c3)ccc12` [Compound 11, 3-fluoro-2-isopropyl-5-(4-methylquinolin-7-yl)phenyl dihydrogen phosphate]: in data set [2], the intrinsic clearance in mouse S9 was 0.68 µL/min/mg.

With `CC(C)c1ncc(/C=C/c2ccccc2)cc1O` [metabolite], the “% activation to tapinarof at 1 μM” value in data set [6] turned out to be 69.5%.
